The values below come from ChEMBL document CHEMBL1146988, “The spermicidal and antitrichomonas activities of SSRI antidepressants” (2006).

One experiment has as its system Trichomonas vaginalis. Briefly: Antitrichomonas activity against Trichomonas vaginalis after 48 hrs. Format: functional.
Another experiment deals with Spermatozoa. Briefly: Spermicidal activity against human spermatozoa. Format: functional.

Some results are limits rather than exact numbers.

In the case of `CNCCC(Oc1ccc(C(F)(F)F)cc1)c1ccccc1.Cl` (stereo unspecified) [FLUOXETINE HYDROCHLORIDE], the MLC in the experiment with Trichomonas vaginalis came out at 0.003%.
Take `COCCCC/C(=N\OCCN)c1ccc(C(F)(F)F)cc1.O=C(O)/C=C\C(=O)O` [FLUVOXAMINE MALEATE]: in the experiment on Spermatozoa, the ED50 was determined as 0.005% and the MEC turned out to be 0.1%. In the experiment on Trichomonas vaginalis, the MLC was determined as 0.005% and the MLC50 is 0.003%.
In the experiment on Spermatozoa, `CCCCCCCCCc1ccc(OCCOCCOCCOCCOCCOCCOCCOCCOCCO)cc1` [NONOXYNOL 9] displayed an ED50 of 0.01% and an MEC of 0.05%. In the experiment with Trichomonas vaginalis, this compound displayed an MLC of 0.002% and an MLC50 of 0.0009%.
For `Cl.Cl.Fc1ccc([C@@H]2CCNC[C@H]2COc2ccc3c(c2)OCO3)cc1.Fc1ccc([C@@H]2CCNC[C@H]2COc2ccc3c(c2)OCO3)cc1.O` [PAROXETINE HYDROCHLORIDE], in the experiment on Spermatozoa, the ED50 came to 0.008% and the MEC came out at 0.1%. Also, in the experiment with Trichomonas vaginalis, the MLC is above 0.01%.
In the experiment with Spermatozoa, `Cl.NCCc1c[nH]c2ccc(O)cc12` [SEROTONIN HYDROCHLORIDE] returned an MEC above 1%.
In the experiment on Spermatozoa, `CN[C@H]1CC[C@@H](c2ccc(Cl)c(Cl)c2)c2ccccc21.Cl` [SERTRALINE HYDROCHLORIDE] came in with an MEC of 0.5%. Also, in the experiment with Trichomonas vaginalis, the MLC came to 0.003% and the MLC50 was found to be 0.0012%.
